From publication PMC12920295, “Novel radiohybrid PET-Tracers for SST2-targeted imaging of neuroendocrine tumors” (European Journal of Nuclear Medicine and Molecular Imaging, 2025) come the findings set out here.

Data set [1] has as its target T1, human serum albumin (HSA) (Homo sapiens, UniProt P02768).
T1 construct: purchased H13H-2433
The experiment in a line: HSA binding by high performance affinity chromatography (HPAC). It counts as in vitro ADME. Particulars: affinity to HSA by affinity chromatography (Chiralpak HSA column). As to the method:
For the determination of binding to human serum albumin (HSA) using HPLC, a Chiralpak HSA column (50 × 3 mm, 5 μm, H13H-2433) was used at a constant flow rate of 0.5 ml/min. The mobile phase (A: NH4OAc, 50 mM in H2O, pH 6.9 and B: iPrOH) was freshly prepared for each day.

Data set [2] can be described thus: Biodistribution 1 h p.i. in AR42J xenograft bearing CD1 nu/nu mice. To be noted: female, mouse, intravenous, total radioactivity, average ± Stdev. It counts as in vivo. As to the method:
The 8-week-old female CD1 nu/nu mice were purchased from Charles River (Sulzfeld, Germany). Animal experiments were conducted according to general animal welfare regulations (German animal protection act, as amended on 18.05.2018, Art. 141 G v. 29.3.2017 I 626, approval no. 55.2-1.2-54–2532-71-13 by the General Administration of the Free State of Bavaria; Swiss animal welfare regulations: Animal Welfare Act SR 455, license: Canton de Vaud, 3781 d). To establish tumor xenografts, AR42J cells (5 × 10^6 cells in 100 µl serum-free culture medium) were inoculated subcutaneously onto the shoulder. Mice were used for experiments when tumors had grown to a diameter of 5–9 mm (7–15 days after inoculation).
Approximately 0.5–2.5 MBq (0.05–0.20 nmol) of the ^18F-labeled ligands were injected into the tail vein of AR42J xenograft-bearing mice under isoflurane anesthesia (1.5% alveolar concentration). The mice were sacrificed 1 h post injection (n = 3–5). Organs were removed, weighed, and the activity quantified (γ-counter).
An unpaired Welch’s t-test was applied using the GraphPad Prism software (version 10.1.2). Standard deviations for tumor-to-organ (T/O) ratios were calculated using the rules of error propagation. Thresholds for statistical significance are defined as: p > 0.05 (ns); p ≤ 0.05 (*); p ≤ 0.01 (**); p ≤ 0.001 (***); p ≤ 0.0001 (****).

Data set [3] relates to AR42J cells. The experiment in a line: Internalization into AR42J cells relative to [125I]TOC. Particulars: percentage compared to internal reference [125I]TOC. Type of data set: cell-based. As to the method:
AR42J cells (European Collection of Cell Cultures, Salisbury, UK) were grown in RPMI 1640 medium (with 2 mM, L-Glu, 10% FCS; v/v, 37 °C, 5% CO2), harvested 24 ± 2 h and seeded in 24-well poly-L-lysine plates (2.0 × 10^5 cells/well in 1 ml culture medium). After removal of the medium, the cells were washed with assay medium (300 µl, RPMI 1640 with 2 mM L-Glu, 5% BSA; v/v) and incubated in assay medium (200 µl, 15 min, 37 °C, 5% CO2). 25 µl of the ^18F-labeled ligand (20 nM) and [^125I]TOC (1 nM) in assay medium were added followed by either 25 µl TOC in assay medium (100 µM, competition experiment) or 25 µl of assay medium (internalization experiment). Cells were incubated at 37 °C for 15, 30, and 60 min (n = 3 per compound and time point), respectively, and chilled on ice. The supernatant was collected, the well washed with ice-cold RPMI 1640 (300 µl), and the two fractions combined (unbound ligand). The cells were incubated with acid wash solution (300 µl, 0.9% NaCl, 50 mM NaOAc/AcOH buffer, pH = 4.6, 15 min, 4 °C) to remove receptor-bound radioligand. The supernatant was collected, and the cells washed with 300 µl ice-cold acid wash solution (combined fractions: acid releasable, receptor bound ligand). The cells were lysed with NaOH solution (300 µl, 1 M, 15 min, RT), washed with 300 µl of the same solution, the two fractions combined (internalized ligand), and all activities quantified using a γ-counter.

The nature of data set [4]: Lipophilicity LogDpH=7.4, shake flask method. Particulars: PBS (pH = 7.4)/n-octanol, mean of n = 8. It counts as physicochemical. As to the method: The LogDpH=7.4 was determined using a modified shake flask method as previously described.

Like-named read-outs stand apart in the source and are kept apart here.

T1 sequence (P02768 25-609): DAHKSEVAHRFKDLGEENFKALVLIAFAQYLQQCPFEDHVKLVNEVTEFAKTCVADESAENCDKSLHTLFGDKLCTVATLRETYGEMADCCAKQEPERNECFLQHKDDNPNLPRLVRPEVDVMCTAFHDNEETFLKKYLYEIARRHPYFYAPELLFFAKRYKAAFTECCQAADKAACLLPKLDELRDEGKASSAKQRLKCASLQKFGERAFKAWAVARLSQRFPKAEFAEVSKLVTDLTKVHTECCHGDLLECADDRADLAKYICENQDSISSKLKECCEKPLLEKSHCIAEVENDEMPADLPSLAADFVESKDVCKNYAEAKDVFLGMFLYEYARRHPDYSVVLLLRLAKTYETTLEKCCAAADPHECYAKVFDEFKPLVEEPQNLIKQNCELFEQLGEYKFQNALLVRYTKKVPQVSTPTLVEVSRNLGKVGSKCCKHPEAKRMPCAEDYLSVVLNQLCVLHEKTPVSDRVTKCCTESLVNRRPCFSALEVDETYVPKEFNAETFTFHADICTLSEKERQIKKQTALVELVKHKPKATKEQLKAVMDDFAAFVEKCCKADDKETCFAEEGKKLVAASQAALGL

Consider `CC(=O)N[C@@H]1[C@@H](O)[C@H](O)[C@@H](CO)O[C@H]1NC(=O)C[C@H](NC(=O)C[N+](C)(C)Cc1ccc([Si](F)(C(C)(C)C)C(C)(C)C)cc1)C(=O)N[C@@H](CC(=O)O)C(=O)N[C@@H](CC(=O)O)C(=O)NCCOCCOCC(=O)N[C@H](Cc1ccccc1)C(=O)N[C@H]1CSSC[C@@H](C(=O)N[C@H](C(=O)O)[C@@H](C)O)NC(=O)[C@H]([C@@H](C)O)NC(=O)[C@H](CCCCN)NC(=O)[C@@H](Cc2c[nH]c3ccccc23)NC(=O)[C@H](Cc2ccc(O)cc2)NC1=O` [[^nat/18F]SiTATE, SiFAlin-Asn(Ac-NHβGlc)Asp2-PEG1-TATE, reference compound], for which the “HSA HPAC” value in data set [1] was 86.8%. In addition, the tissue uptake at 1 h in data set [2] (adrenal glands, AR42J tumor-bearing CD1 nu/nu mice, read-out: Biodistribution Adrenal Glands) was found to be 1.89 ± 0.37 %ID/g; in data set [2] (blood, AR42J tumor-bearing CD1 nu/nu mice, read-out: Biodistribution Blood) it was 0.81 ± 0.11 %ID/g; in data set [2] (femur, AR42J tumor-bearing CD1 nu/nu mice, read-out: Biodistribution Femur) it was 1.54 ± 0.34 %ID/g; in data set [2] (heart, AR42J tumor-bearing CD1 nu/nu mice, read-out: Biodistribution Heart) it was 0.47 ± 0.06 %ID/g; in data set [2] (intestine, AR42J tumor-bearing CD1 nu/nu mice, read-out: Biodistribution Intestine) it was 1.67 ± 0.21 %ID/g; in data set [2] (kidney, AR42J tumor-bearing CD1 nu/nu mice, read-out: Biodistribution Kidney), 16.3 ± 1 %ID/g. Moreover, the tissue uptake at 1 h in data set [2] (liver, AR42J tumor-bearing CD1 nu/nu mice, read-out: Biodistribution Liver) was 1.97 ± 0.25 %ID/g; in data set [2] (lung, AR42J tumor-bearing CD1 nu/nu mice, read-out: Biodistribution Lung), 3.38 ± 0.62 %ID/g; in data set [2] (muscle, AR42J tumor-bearing CD1 nu/nu mice, read-out: Biodistribution Muscle) it was 0.15 ± 0.02 %ID/g; in data set [2] (pancreas, AR42J tumor-bearing CD1 nu/nu mice, read-out: Biodistribution Pancreas), 8.94 ± 1.98 %ID/g; in data set [2] (spleen, AR42J tumor-bearing CD1 nu/nu mice, read-out: Biodistribution Spleen), 0.66 ± 0.08 %ID/g; in data set [2] (stomach, AR42J tumor-bearing CD1 nu/nu mice, read-out: Biodistribution Stomach), 6.75 ± 0.58 %ID/g. Moreover, the tissue uptake at 1 h in data set [2] (tumor (AR42J xenograft), AR42J xenograft, CD1 nu/nu mice, read-out: Biodistribution Tumor) is 22.7 ± 2.68 %ID/g. In data set [3], this compound came in with an Internalization of 236%. Also, the “LogDpH=7.4” value in data set [4] was −1.27.
